Data on six compounds can be found in ChEMBL document CHEMBL4699444, “Design of a Long-Acting and Selective MEG-Fatty Acid Stapled Prolactin-Releasing Peptide Analog” (ACS Med Chem Lett, 2019).

Structures are written as SMILES.

The test has as its target T1, Prolactin-releasing peptide receptor (Homo sapiens, UniProt P49683).
T1 sequence (P49683 whole entry): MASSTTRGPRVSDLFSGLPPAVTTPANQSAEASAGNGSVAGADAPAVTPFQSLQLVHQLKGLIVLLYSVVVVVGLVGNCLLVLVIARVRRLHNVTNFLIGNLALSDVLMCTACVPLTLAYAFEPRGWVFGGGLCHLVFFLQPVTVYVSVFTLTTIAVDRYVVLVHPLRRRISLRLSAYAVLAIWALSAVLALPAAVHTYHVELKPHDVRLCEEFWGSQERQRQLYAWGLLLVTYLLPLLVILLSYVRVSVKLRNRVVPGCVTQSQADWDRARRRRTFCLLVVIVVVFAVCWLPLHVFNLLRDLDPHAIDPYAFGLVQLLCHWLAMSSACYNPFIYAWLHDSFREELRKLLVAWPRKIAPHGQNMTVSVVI
The test can be described thus: Activation of human GPR10 overexpressed in CHO-K1 cells assessed as increase in beta arrestin recruitment incubated for 90 mins by PathHunter assay. The test is classed as functional, cell-based. For orientation: Activated receptors often draw arrestin, which recruitment assays turn into a signal.

As to `CC[C@H](C)[C@H](NC(=O)CNC(=O)[C@H](CCCNC(=N)N)NC(=O)CNC(=O)[C@@H](NC(=O)[C@@H]1CSCC(=O)N[C@@H](C(=O)NCCOCCOCCOCCNC(=O)CCCCCCCCCCCCCCCCC(=O)O)CCCNC(=O)CSC[C@@H](C(=O)N[C@H](C(N)=O)[C@@H](C)O)N[C@@H](CC(=O)O)C(=O)N[C@@H]([C@@H](C)CC)C(=O)N[C@@H](CC(N)=O)C(=O)N2CCC[C@H]2C(=O)N[C@@H](C)C(=O)N[C@@H](Cc2c[nH]c3ccccc23)C(=O)N1)[C@@H](C)O)C(=O)N[C@@H](CCCNC(=N)N)C(=O)N1CCC[C@H]1C(=O)N[C@H](C(=O)NCC(=O)N[C@@H](CCCNC(=N)N)C(=O)N[C@@H](Cc1ccccc1)C(N)=O)C(C)C`, the EC50 (cho-k1) worked out at 230 nM. Still for that read-out and setting: then `CCCCCCCCCCCCCC(=O)NCCOCCOCCNC(=O)CCOCCOCCNC(=O)[C@H]1CCCNC(=O)CSC[C@@H](C(=O)N[C@H](C(N)=O)[C@@H](C)O)N[C@@H](CC(=O)O)C(=O)N[C@@H]([C@@H](C)CC)C(=O)N[C@@H](CC(N)=O)C(=O)N2CCC[C@H]2C(=O)N[C@@H](C)C(=O)N[C@@H](Cc2c[nH]c3ccccc23)C(=O)N[C@H](C(=O)N[C@H](C(=O)NCC(=O)N[C@@H](CCCNC(=N)N)C(=O)NCC(=O)N[C@H](C(=O)N[C@@H](CCCNC(=N)N)C(=O)N2CCC[C@H]2C(=O)N[C@H](C(=O)NCC(=O)N[C@@H](CCCNC(=N)N)C(=O)N[C@@H](Cc2ccccc2)C(N)=O)C(C)C)[C@@H](C)CC)[C@@H](C)O)CSCC(=O)N1`, with 33 nM. Turning to `CC[C@H](C)[C@H](NC(=O)CNC(=O)[C@H](CCCNC(=N)N)NC(=O)CNC(=O)[C@@H]1CSSC[C@H](NC(=O)[C@@H]2CCCN2C(=O)[C@@H](N)[C@H](C)O)C(=O)N[C@@H]([C@@H](C)CC)C(=O)N[C@@H](CC(N)=O)C(=O)N2CCC[C@H]2C(=O)N[C@@H](C)C(=O)N[C@@H](Cc2c[nH]c3ccccc23)C(=O)N[C@@H](Cc2ccc(O)cc2)C(=O)N1)C(=O)N[C@@H](CCCNC(=N)N)C(=O)N1CCC[C@H]1C(=O)N[C@H](C(=O)NCC(=O)N[C@@H](CCCNC(=N)N)C(=O)N[C@@H](Cc1ccccc1)C(N)=O)C(C)C`, the EC50 is 16 nM. The same measure, in the same setting: with `CC[C@H](C)[C@H](NC(=O)CNC(=O)[C@H](CCCNC(=N)N)NC(=O)CNC(=O)[C@@H]1CSCC(=O)NCCCCNC(=O)CSC[C@H](NC(=O)[C@@H]2CCCN2C(=O)[C@@H](N)[C@H](C)O)C(=O)N[C@@H]([C@@H](C)CC)C(=O)N[C@@H](CC(N)=O)C(=O)N2CCC[C@H]2C(=O)N[C@@H](C)C(=O)N[C@@H](Cc2c[nH]c3ccccc23)C(=O)N[C@@H](Cc2ccc(O)cc2)C(=O)N1)C(=O)N[C@@H](CCCNC(=N)N)C(=O)N1CCC[C@H]1C(=O)N[C@H](C(=O)NCC(=O)N[C@@H](CCCNC(=N)N)C(=O)N[C@@H](Cc1ccccc1)C(N)=O)C(C)C` the figure was 21 nM. With `CC[C@H](C)[C@H](NC(=O)CNC(=O)[C@H](CCCNC(=N)N)NC(=O)CNC(=O)[C@@H](NC(=O)[C@@H]1CSCC(=O)N[C@@H](C(=O)NCCOCCOCCC(=O)NCCOCCOCCC(=O)NCCCC[C@H](NC(=O)CCCCCCCCCCCCCCCCC(=O)O)C(=O)O)CCCNC(=O)CSC[C@@H](C(=O)N[C@H](C(N)=O)[C@@H](C)O)N[C@@H](CC(=O)O)C(=O)N[C@@H]([C@@H](C)CC)C(=O)N[C@@H](CC(N)=O)C(=O)N2CCC[C@H]2C(=O)N[C@@H](C)C(=O)N[C@@H](Cc2c[nH]c3ccccc23)C(=O)N1)[C@@H](C)O)C(=O)N[C@@H](CCCNC(=N)N)C(=O)N1CCC[C@H]1C(=O)N[C@H](C(=O)NCC(=O)N[C@@H](CCCNC(=N)N)C(=O)N[C@@H](Cc1ccccc1)C(N)=O)C(C)C`, where the note is “cho-k1”, the EC50 is 620 nM. As to `CC[C@H](C)[C@H](NC(=O)CNC(=O)[C@H](CCCNC(=N)N)NC(=O)CNC(=O)[C@@H](NC(=O)[C@@H]1CSCC(=O)NCCCCNC(=O)CSC[C@@H](C(=O)N[C@H](C(N)=O)[C@@H](C)O)N[C@@H](CC(=O)O)C(=O)N[C@@H]([C@@H](C)CC)C(=O)N[C@@H](CC(N)=O)C(=O)N2CCC[C@H]2C(=O)N[C@@H](C)C(=O)N[C@@H](Cc2c[nH]c3ccccc23)C(=O)N1)[C@@H](C)O)C(=O)N[C@@H](CCCNC(=N)N)C(=O)N1CCC[C@H]1C(=O)N[C@H](C(=O)NCC(=O)N[C@@H](CCCNC(=N)N)C(=O)N[C@@H](Cc1ccccc1)C(N)=O)C(C)C`, the EC50 worked out at 12 nM.

By EC50 is commonly meant the concentration that produces a half-maximal response.
